From PubChem BioAssay (NCI)
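Briefly, cells in 96-well plates were exposed to five compound concentrations for 48 h, and endpoints were estimated by linear interpolation. TGI denotes the concentration required for complete inhibition of growth.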

Key:
Assay in all cases: NCI tumour cell line growth inhibition, 48 h
786-0 renal = system: 786-0 renal
A498 renal = system: A498 renal
A549 NSCLC = system: A549 NSCLC
ACHN renal = system: ACHN renal
BT-549 breast = system: BT-549 breast
CCRF-CEM leukemia = system: CCRF-CEM leukemia
COLO 205 colon = system: COLO 205 colon
DLD-1 colon = system: DLD-1 colon
DMS 114 small cell lung = system: DMS 114 small cell lung
DMS 273 small cell lung = system: DMS 273 small cell lung
DU-145 prostate = system: DU-145 prostate
HCC-2998 colon = system: HCC-2998 colon
HCT-116 colon = system: HCT-116 colon
HCT-15 colon = system: HCT-15 colon
HL-60(TB) leukemia = system: HL-60(TB) leukemia
HOP-18 NSCLC = system: HOP-18 NSCLC
HOP-62 NSCLC = system: HOP-62 NSCLC
HOP-92 NSCLC = system: HOP-92 NSCLC
HS 578T breast = system: HS 578T breast
HT29 colon = system: HT29 colon
IGROV1 ovarian = system: IGROV1 ovarian
K-562 leukemia = system: K-562 leukemia
KM12 colon = system: KM12 colon
LOX IMVI melanoma = system: LOX IMVI melanoma
LXFL 529 NSCLC = system: LXFL 529 NSCLC
M14 melanoma = system: M14 melanoma
M19-MEL melanoma = system: M19-MEL melanoma
MALME-3M melanoma = system: MALME-3M melanoma
MCF7 breast = system: MCF7 breast
MDA-MB-231 breast = system: MDA-MB-231 breast
MDA-MB-435 = system: MDA-MB-435
MDA-N = system: MDA-N
MOLT-4 leukemia = system: MOLT-4 leukemia
NCI-H226 lung = system: NCI-H226 lung
NCI-H23 lung = system: NCI-H23 lung
NCI-H460 lung = system: NCI-H460 lung
NCI-H522 lung = system: NCI-H522 lung
NCI/ADR-RES ovarian = system: NCI/ADR-RES ovarian
OVCAR-3 ovarian = system: OVCAR-3 ovarian
OVCAR-4 ovarian = system: OVCAR-4 ovarian
OVCAR-5 ovarian = system: OVCAR-5 ovarian
OVCAR-8 ovarian = system: OVCAR-8 ovarian
PC-3 prostate = system: PC-3 prostate
RPMI-8226 leukemia = system: RPMI-8226 leukemia
RXF 393 renal = system: RXF 393 renal
SF-268 CNS = system: SF-268 CNS
SF-295 CNS = system: SF-295 CNS
SF-539 CNS = system: SF-539 CNS
SK-MEL-2 melanoma = system: SK-MEL-2 melanoma
SK-MEL-28 melanoma = system: SK-MEL-28 melanoma
SK-MEL-5 melanoma = system: SK-MEL-5 melanoma
SK-OV-3 ovarian = system: SK-OV-3 ovarian
SN12C renal = system: SN12C renal
SNB-19 CNS = system: SNB-19 CNS
SNB-75 CNS = system: SNB-75 CNS
SNB-78 CNS = system: SNB-78 CNS
SW-620 colon = system: SW-620 colon
T-47D breast = system: T-47D breast
TK-10 renal = system: TK-10 renal
U251 CNS = system: U251 CNS
UACC-257 melanoma = system: UACC-257 melanoma
UACC-62 melanoma = system: UACC-62 melanoma
UO-31 renal = system: UO-31 renal
XF 498 CNS = system: XF 498 CNS

O=c1cc(-c2cccnc2)[nH]c2cc3c(cc12)OCO3
TGI (786-0 renal): > 100 µM | TGI (A498 renal): > 69.9 µM | TGI (A549 NSCLC): > 100 µM | TGI (ACHN renal): > 100 µM | TGI (BT-549 breast): > 100 µM | TGI (CCRF-CEM leukemia): > 100 µM | TGI (COLO 205 colon): > 100 µM | TGI (DLD-1 colon): > 100 µM | TGI (DMS 114 small cell lung): > 100 µM | TGI (DMS 273 small cell lung): > 100 µM | TGI (DU-145 prostate): > 100 µM | TGI (HCC-2998 colon): 19.4 µM | TGI (HCT-116 colon): > 100 µM | TGI (HCT-15 colon): > 64.3 µM | TGI (HL-60(TB) leukemia): 31.9 µM | TGI (HOP-18 NSCLC): 84.1 µM | TGI (HOP-62 NSCLC): 58.8 µM | TGI (HOP-92 NSCLC): > 100 µM | TGI (HS 578T breast): 69.6 µM | TGI (HT29 colon): 59.3 µM | TGI (IGROV1 ovarian): > 28.1 µM | TGI (K-562 leukemia): > 100 µM | TGI (KM12 colon): > 100 µM | TGI (LOX IMVI melanoma): > 100 µM | TGI (LXFL 529 NSCLC): 26.8 µM | TGI (M14 melanoma): > 100 µM | TGI (M19-MEL melanoma): > 100 µM | TGI (MALME-3M melanoma): > 26 µM | TGI (MCF7 breast): > 100 µM | TGI (MDA-MB-231 breast): > 100 µM | TGI (MDA-MB-435): 4.6 µM | TGI (MDA-N): 5.71 µM | TGI (MOLT-4 leukemia): > 100 µM | TGI (NCI-H226 lung): > 89.6 µM | TGI (NCI-H23 lung): > 53.5 µM | TGI (NCI-H460 lung): > 100 µM | TGI (NCI-H522 lung): > 21.6 µM | TGI (NCI/ADR-RES ovarian): 40 µM | TGI (OVCAR-3 ovarian): > 20.7 µM | TGI (OVCAR-4 ovarian): > 100 µM | TGI (OVCAR-5 ovarian): > 100 µM | TGI (OVCAR-8 ovarian): > 95.3 µM | TGI (PC-3 prostate): > 100 µM | TGI (RPMI-8226 leukemia): > 100 µM | TGI (RXF 393 renal): > 96.3 µM | TGI (SF-268 CNS): > 100 µM | TGI (SF-295 CNS): > 38.5 µM | TGI (SF-539 CNS): 17.7 µM | TGI (SK-MEL-2 melanoma): > 100 µM | TGI (SK-MEL-28 melanoma): > 100 µM | TGI (SK-MEL-5 melanoma): 23.9 µM | TGI (SK-OV-3 ovarian): > 67 µM | TGI (SN12C renal): > 100 µM | TGI (SNB-19 CNS): 79.6 µM | TGI (SNB-75 CNS): 27.1 µM | TGI (SNB-78 CNS): > 100 µM | TGI (SW-620 colon): > 100 µM | TGI (T-47D breast): > 100 µM | TGI (TK-10 renal): > 100 µM | TGI (U251 CNS): 30.8 µM | TGI (UACC-257 melanoma): > 100 µM | TGI (UACC-62 melanoma): > 100 µM | TGI (UO-31 renal): > 100 µM | TGI (XF 498 CNS): 72.7 µM
